Reference: US20250215029A1 (Recludix Pharma, Inc., priority 2022, published 2025)
pIC50: −log10 of the molar value. Where two headings read alike, the source gives them in different places.

What was measured:
[1] = molecular target: T1, Recombinant STAT6 protein (STAT6 (W123-T658)) (Homo sapiens, UniProt P42226); assay: STAT6 Fluorescence Polarization (FP) Assay; type: binding; conditions: probe 5-FAM-Ap[…]-NH2 2 nM, 45-minute incubation
T1 construct: Recombinant STAT6 protein (STAT6 (W123-T658))
T1 sequence (P42226 123-658): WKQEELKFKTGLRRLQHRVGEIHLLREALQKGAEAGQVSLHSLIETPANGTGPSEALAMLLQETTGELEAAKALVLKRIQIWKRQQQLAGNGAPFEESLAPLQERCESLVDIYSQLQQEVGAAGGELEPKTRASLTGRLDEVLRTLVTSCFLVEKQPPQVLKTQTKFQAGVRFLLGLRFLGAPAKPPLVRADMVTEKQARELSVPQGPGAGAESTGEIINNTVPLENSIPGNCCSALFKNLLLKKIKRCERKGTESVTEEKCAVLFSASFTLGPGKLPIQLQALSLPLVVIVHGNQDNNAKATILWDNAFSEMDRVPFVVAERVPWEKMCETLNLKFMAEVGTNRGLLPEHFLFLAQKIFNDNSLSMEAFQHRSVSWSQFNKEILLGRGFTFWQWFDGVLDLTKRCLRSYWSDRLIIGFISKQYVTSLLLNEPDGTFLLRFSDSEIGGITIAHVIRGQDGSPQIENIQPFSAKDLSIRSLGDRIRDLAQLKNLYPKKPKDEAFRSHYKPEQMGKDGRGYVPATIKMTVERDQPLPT
Procedure, shortened: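 Fluorescence polarization (mP) read-out: 250 nM STAT6 (W123-T658) plus 2 nM 5-FAM phosphotyrosine peptide, 45 min, room temperature, 1% DMSO. IC50 by nonlinear fit of mP against log compound concentration.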

[2] = molecular target: T2, Recombinant STAT3 protein (STAT3 (G127-I722)) (Homo sapiens, UniProt P40763); assay: STAT3 Fluorescence Polarization (FP) Assay; type: binding; conditions: probe 5-FAM-GpYLPQTV-NH2 2 nM, 45-minute incubation
T2 construct: Recombinant STAT3 protein (STAT3 (G127-I722))
Procedure, shortened: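 Compounds in serial dilution receive a premix of STAT3 (G127-I722, 25 nM) and fluorescent phosphotyrosine peptide 5-FAM-GpYLPQTV-NH2 (2 nM) at pH 7.4. After 45 min at room temperature, FP is measured and IC50 derived by nonlinear regression.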

[3] = STAT6 (W123-T658) 250 nM, read-out: STAT6 (FP assay IC50 class)
[4] = STAT3 (G127-I722) 25 nM, read-out: STAT3 (FP assay IC50 class)
[5] = STAT6 250 nM, read-out: STAT6 (FP assay IC50)
[6] = STAT3 25 nM, read-out: STAT3 (FP assay IC50)

T2 sequence (P40763 127-722): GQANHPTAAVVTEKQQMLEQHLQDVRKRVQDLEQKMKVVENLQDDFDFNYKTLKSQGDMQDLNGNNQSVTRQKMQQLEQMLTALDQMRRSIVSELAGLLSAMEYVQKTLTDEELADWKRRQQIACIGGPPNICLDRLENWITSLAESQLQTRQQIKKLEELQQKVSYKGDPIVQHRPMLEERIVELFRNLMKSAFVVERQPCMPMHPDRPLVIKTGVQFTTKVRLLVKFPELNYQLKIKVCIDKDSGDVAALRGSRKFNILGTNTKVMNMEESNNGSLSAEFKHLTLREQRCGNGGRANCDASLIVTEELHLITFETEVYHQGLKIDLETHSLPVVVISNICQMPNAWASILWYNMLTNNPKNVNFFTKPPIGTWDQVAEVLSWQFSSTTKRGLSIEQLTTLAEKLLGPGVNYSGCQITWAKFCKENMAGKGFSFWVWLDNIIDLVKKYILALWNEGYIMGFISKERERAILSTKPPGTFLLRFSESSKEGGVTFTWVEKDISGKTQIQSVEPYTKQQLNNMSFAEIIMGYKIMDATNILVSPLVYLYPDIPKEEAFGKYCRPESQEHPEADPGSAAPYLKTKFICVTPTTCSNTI

SMILES | pIC50 [1, 3] | pIC50 [2, 4] | pIC50 [1, 5] | pIC50 [2, 6]
CCC[C@@H]1CC[C@H](NC(=O)c2cc3cc([C@H](F)P(=O)(O)O)ccc3s2)C(=O)N2[C@H](CC[C@H]2C(=O)N2CC(c3cnccc3N3CCC3)C2)C1 [Compound 930, ((R)-(2-(((3S,6S,9R,10aR)-3-(3-(4-(azetidin-1-yl)pyridin-3-yl)azetidine-1-carbonyl)-5-oxo-9-propyldecahydro-pyrrolo[1,2-a]azocin-6-yl)carbamoyl)benzo [b]thiophen-5-yl)fluoromethyl) phosphonic acid] | 4.52 to 5.52 | 6.00 to 7.00 | – | –
N#C[C@@H]1[C@@H](c2cncc(Cl)c2)CN(C(=O)[C@@H]2CC[C@@H]3CCCC[C@H](NC(=O)c4cc5cc(C(F)P(=O)(O)O)ccc5s4)C(=O)N32)C12CC2 (single isomer, unassigned) [Compound 846] | 5.52 to 6.52 | 5.00 to 6.00 | – | –
O=C(N[C@H]1CCC[C@H]2CC[C@@H](C(=O)N[C@H]3CN(c4ncc[nH]4)C[C@@H]3F)N2C1=O)c1cc2cc([C@H](F)P(=O)(O)O)ccc2s1 [Compound 637, ((R)-fluoro(2-(((3S,6S,9aS)-3-(((3S,4S)-4-fluoro-1-(1H-imidazol-2-yl)pyrrolidin-3-yl)carbamoyl)-5-oxooctahydro-1H-pyrrolo[1,2-a]azepin-6-yl)carbamoyl)benzo [b]thiophen-5-yl)methyl) phosphonic acid] | 5.52 to 6.52 | > 7.00 | – | –
CC(c1ccc2sc(C(=O)N[C@H]3CCC[C@H]4CC[C@@H](C(=O)N5CC(c6cccnc6)C5)N4C3=O)cc2c1)P(=O)(O)O (stereo partly drawn) [Compound 896, (1-(2-(((3S,6S,9aS)-5-oxo-3-(3-(pyridin-3-yl)azetidine-1-carbonyl)octahydro-1H-pyrrolo[1,2-a]azepin-6-yl)carbamoyl)benzo [b]thiophen-5-yl)ethyl) phosphonic acid] | 4.52 to 5.52 | 6.00 to 7.00 | – | –
O=C(N[C@H]1CCCC[C@H]2CC[C@@H](C(=O)N3CCC(c4cccnc4)C3)N2C1=O)c1ccc2ccc(C(F)P(=O)(O)O)cc2c1 (stereo partly drawn) [Compound 892, (fluoro(7-(((3S,6S,10aS)-5-oxo-3-(3-(pyridin-3-yl)pyrrolidine-1-carbonyl)decahydropyrrolo[1,2-a]azocin-6-yl)carbamoyl)naphthalen-2-yl)methyl) phosphonic acid] | 5.52 to 6.52 | 5.00 to 6.00 | – | –
O=C(N[C@H]1CCCC[C@H]2CC[C@@H](C(=O)N3CCN(C(=O)c4cn[nH]c4)CC3)N2C1=O)c1cc2cc(C(F)(F)P(=O)(O)O)ccc2s1 [Compound 118B, ((2-(((3S,6S,10a S)-3-(4-(1H-pyrazole-4-carbonyl)piperazine-1-carbonyl)-5-oxodecahydro-pyrrolo [1,2-a]azocin-6-yl)carbamoyl)benzo[b]thiophen-5-yl)difluoromethyl) phosphonic acid] | – | – | 5.52 to 6.52 | 6.00 to 7.00
COC1CN(c2ccncc2C2CN(C(=O)[C@@H]3CC[C@@H]4CCC[C@H](NC(=O)c5cc6cc([C@@H](F)P(=O)(O)O)ccc6s5)C(=O)N43)C2)C1 [Compound 859, ((S)-fluoro(2-(((3S,6S,9aS)-3-(3-(4-(3-methoxyazetidin-1-yl)pyridin-3-yl)azetidine-1-carbonyl)-5-oxooctahydro-1H-pyrrolo[1,2-a]azepin-6-yl)carbamoyl)benzo [b]thiophen-5-yl)methyl) phosphonic acid] | 5.52 to 6.52 | > 7.00 | – | –
COCCOC1(c2ccccn2)CN(C(=O)[C@@H]2CC[C@@H]3CCCC[C@H](NC(=O)c4cc5cc(C(F)P(=O)(O)O)ccc5s4)C(=O)N32)C1 (stereo partly drawn) [Compound 615, (fluoro(2-(((3S,6S,10aS)-3-(3-(2-methoxyethoxy)-3-(pyridin-2-yl)azetidine-1-carbonyl)-5-oxodecahydropyrrolo[1,2-a]azocin-6-yl)carbamoyl)benzo [b]thiophen-5-yl)methyl) phosphonic acid] | 4.52 to 5.52 | > 7.00 | – | –
CCOc1c(F)cncc1C1CN(C(=O)[C@@H]2CC[C@@H]3CCC[C@H](NC(=O)c4cc5cc([C@@H](F)P(=O)(O)O)ccc5s4)C(=O)N32)C1 [Compound 928, ((S)-(2-(((3S,6S,9aS)-3-(3-(4-ethoxy-5-fluoropyridin-3-yl)azetidine-1-carbonyl)-5-oxooctahydro-1H-pyrrolo[1,2-a]azepin-6-yl)carbamoyl)benzo [b]thiophen-5-yl)fluoromethyl) phosphonic acid] | 4.52 to 5.52 | 5.00 to 6.00 | – | –
O=C(N[C@H]1CCCC[C@H]2CC[C@@H](C(=O)N3CC(Cc4ccccn4)C3)N2C1=O)c1cc2cc(C(F)(F)P(=O)(O)O)ccc2s1 [Compound 718, (difluoro(2-(((3S,6S,10aS)-5-oxo-3-(3-(pyridin-2-ylmethyl)azetidine-1-carbonyl)decahydropyrrolo[1,2-a]azocin-6-yl)carbamoyl)benzo [b]thiophen-5-yl)methyl) phosphonic acid] | 5.52 to 6.52 | > 7.00 | – | –
N#Cc1nccc(C2CN(C(=O)[C@@H]3CC[C@@H]4CCC[C@H](NC(=O)c5cc6cc(CP(=O)(O)O)ccc6s5)C(=O)N43)C2)n1 [Compound 515, ((2-(((3S,6S,9aS)-3-(3-(2-cyanopyrimidin-4-yl)azetidine-1-carbonyl)-5-oxooctahydro-1H-pyrrolo[1,2-a]azepin-6-yl)carbamoyl)benzo[b]thiophen-5-yl)methyl)phosphonic acid] | 4.52 to 5.52 | 5.00 to 6.00 | – | –
Cc1cc(C2CN(C(=O)[C@@H]3CC[C@@H]4CCCC[C@H](NC(=O)c5cc6cc(C(F)(F)P(=O)(O)O)ccc6s5)C(=O)N43)CC2C#N)cc(=O)[nH]1 (single isomer, unassigned) [Compound 876] | 5.52 to 6.52 | 5.00 to 6.00 | – | –
COCC1(c2ncccn2)CN(C(=O)[C@@H]2CC[C@@H]3CCCC[C@H](NC(=O)c4cc5cc(C(F)(F)P(=O)(O)O)ccc5s4)C(=O)N32)C1 [Compound 654, (difluoro(2-(((3S,6S,10aS)-3-(3-(methoxymethyl)-3-(pyrimidin-2-yl)azetidine-1-carbonyl)-5-oxodecahydropyrrolo [1,2-a]azocin-6-yl)carbamoyl)benzo [b]thiophen-5-yl)methyl) phosphonic acid] | 4.52 to 5.52 | 6.00 to 7.00 | – | –
CCC[C@@H]1CC[C@H](NC(=O)c2cc3cc(C(F)P(=O)(O)O)ccc3s2)C(=O)N2[C@H](CC[C@H]2C(=O)N2CC(c3cnccc3OC)C2)C1 (stereo partly drawn) [Compound 241, (fluoro(2-(((3S,6S,9R,10aR)-3-(3-(4-methoxypyridin-3-yl)azetidine-1-carbonyl)-5-oxo-9-propyldecahydropyrrolo[1,2-a]azocin-6-yl)carbamoyl)benzo[b]thiophen-5-yl)methyl)phosphonic acid] | 4.52 to 5.52 | > 7.00 | – | –
O=C(N[C@H]1CCC[C@H]2CC[C@@H](C(=O)N3CCC(c4ncncc4F)CC3)N2C1=O)c1cc2cc(C(F)P(=O)(O)O)ccc2s1 (stereo partly drawn) [Compound 582, (fluoro(2-(((3S,6S,9aS)-3-(4-(5-fluoropyrimidin-4-yl)piperidine-1-carbonyl)-5-oxooctahydro-1H-pyrrolo[1,2-a]azepin-6-yl)carbamoyl)benzo[b]thiophen-5-yl)methyl)phosphonic acid] | 4.52 to 5.52 | 5.00 to 6.00 | – | –
O=C(N[C@H]1CCC[C@H]2CC[C@@H](C(=O)N3CC(c4cncc(Cl)c4F)C3)N2C1=O)c1cc2cc(C(F)P(=O)(O)O)ccc2s1 (stereo partly drawn) [Compound 717, ((2-(((3S,6S,9aS)-3-(3-(5-chloro-4-fluoropyridin-3-yl)azetidine-1-carbonyl)-5-oxooctahydro-1H-pyrrolo[1,2-a]azepin-6-yl)carbamoyl)benzo [b]thiophen-5-yl)fluoromethyl) phosphonic acid] | 4.52 to 5.52 | > 7.00 | – | –
N#C[C@@H]1CN(C(=O)[C@@H]2CC[C@@H]3CCC[C@@H](C4CC4)[C@H](NC(=O)c4cc5cc(C(F)(F)P(=O)(O)O)ccc5s4)C(=O)N32)C[C@H]1c1ccccc1 (single isomer, unassigned) [Compound 234] | ≥ 6.52 | 5.00 to 6.00 | – | –
C[C@]1(O)CC[C@H](NC(=O)c2cc3cc(C(F)(F)P(=O)(O)O)ccc3s2)C(=O)N2[C@H](CC[C@H]2C(=O)N2CC(C(=O)N3CCOCC3)C2)C1 [Compound 13, (difluoro(2-(((3S,6S,9S,10aR)-9-hydroxy-9-methyl-3-(3-(morpholine-4-carbonyl)azetidine-1-carbonyl)-5-oxodecahydropyrrolo [1,2-a]azocin-6-yl)carbamoyl)benzo [b]thiophen-5-yl)methyl) phosphonic acid] | – | – | 4.52 to 5.52 | > 7.00
